Source: ChEMBL document CHEMBL6121046, “Discovery of Novel Hydrazide-Based HDAC3 Inhibitors as Epigenetic Immunomodulators for Cancer Immunotherapy” (J Med Chem, 2025)
The source made the active and inactive calls. The rule behind the calls is not given here.

Key:
[1] = molecular target: T1, Protein deacetylase HDAC6 (Homo sapiens, UniProt Q9UBN7); assay: Inhibition of human recombinant HDAC6 pre-incubated with compounds for 10 mins measured followed by 60 mins of substrate addition
T1 sequence (Q9UBN7 whole entry): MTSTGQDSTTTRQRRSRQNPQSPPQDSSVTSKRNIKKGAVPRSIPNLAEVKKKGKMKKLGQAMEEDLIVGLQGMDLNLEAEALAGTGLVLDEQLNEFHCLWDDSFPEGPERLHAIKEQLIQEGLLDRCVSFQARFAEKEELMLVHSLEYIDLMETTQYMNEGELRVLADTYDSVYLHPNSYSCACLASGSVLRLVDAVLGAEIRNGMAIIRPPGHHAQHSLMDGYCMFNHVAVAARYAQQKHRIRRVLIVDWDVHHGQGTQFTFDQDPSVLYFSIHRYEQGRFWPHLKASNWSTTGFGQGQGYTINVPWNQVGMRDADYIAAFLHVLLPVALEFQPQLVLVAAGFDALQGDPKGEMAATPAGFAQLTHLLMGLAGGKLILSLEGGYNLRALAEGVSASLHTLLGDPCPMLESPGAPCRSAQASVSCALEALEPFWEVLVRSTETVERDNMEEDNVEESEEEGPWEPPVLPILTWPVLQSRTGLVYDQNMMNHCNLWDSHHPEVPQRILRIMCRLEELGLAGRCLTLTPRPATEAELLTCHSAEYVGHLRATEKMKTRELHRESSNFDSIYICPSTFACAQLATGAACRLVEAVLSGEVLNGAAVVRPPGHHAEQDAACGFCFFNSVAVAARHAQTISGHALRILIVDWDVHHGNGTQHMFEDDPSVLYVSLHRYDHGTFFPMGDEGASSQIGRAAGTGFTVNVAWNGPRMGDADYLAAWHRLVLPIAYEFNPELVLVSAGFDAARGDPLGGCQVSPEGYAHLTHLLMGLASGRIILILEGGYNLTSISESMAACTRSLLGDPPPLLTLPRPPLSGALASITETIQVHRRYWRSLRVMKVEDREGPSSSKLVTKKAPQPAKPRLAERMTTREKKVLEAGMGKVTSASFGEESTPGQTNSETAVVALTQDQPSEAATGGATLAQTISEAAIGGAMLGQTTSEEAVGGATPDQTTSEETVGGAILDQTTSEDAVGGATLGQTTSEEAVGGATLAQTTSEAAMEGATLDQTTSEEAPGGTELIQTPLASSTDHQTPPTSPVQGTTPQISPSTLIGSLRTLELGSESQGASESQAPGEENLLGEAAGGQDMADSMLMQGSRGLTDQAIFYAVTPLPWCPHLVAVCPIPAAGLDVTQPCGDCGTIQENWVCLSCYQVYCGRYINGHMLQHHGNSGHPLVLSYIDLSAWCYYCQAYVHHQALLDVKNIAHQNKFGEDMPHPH

Histone deacetylase 1 = Histone deacetylase 1 (Homo sapiens, UniProt Q13547); assay: Inhibition of human recombinant HDAC1 pre-incubated with compounds for 10 mins measured followed by 60 mins of substrate addition
Sequence of Histone deacetylase 1 (Q13547 whole entry): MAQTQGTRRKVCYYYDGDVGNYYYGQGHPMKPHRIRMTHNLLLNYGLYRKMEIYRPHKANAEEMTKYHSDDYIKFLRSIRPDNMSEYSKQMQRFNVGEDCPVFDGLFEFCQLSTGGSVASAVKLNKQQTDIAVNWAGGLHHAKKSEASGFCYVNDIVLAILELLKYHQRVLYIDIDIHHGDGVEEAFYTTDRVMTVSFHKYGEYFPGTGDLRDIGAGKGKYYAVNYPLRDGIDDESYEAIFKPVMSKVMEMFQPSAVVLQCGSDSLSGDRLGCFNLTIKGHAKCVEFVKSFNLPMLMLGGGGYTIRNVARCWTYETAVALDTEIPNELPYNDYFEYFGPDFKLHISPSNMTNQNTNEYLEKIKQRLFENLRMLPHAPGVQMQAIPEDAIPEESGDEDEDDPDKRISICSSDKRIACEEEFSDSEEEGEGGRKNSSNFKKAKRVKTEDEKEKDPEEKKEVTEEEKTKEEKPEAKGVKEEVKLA

B16-F10 = assay: Antiproliferative activity against mouse B16-F10 cells at 1 uM measured after 48 hrs incubation by MTT assay relative to control
Histone deacetylase 7 = molecular target: T2, Histone deacetylase 7 (Homo sapiens, UniProt Q8WUI4); assay: Inhibition of human recombinant HDAC7 pre-incubated with compounds for 10 mins measured followed by 60 mins of substrate addition
T2 sequence (Q8WUI4 whole entry): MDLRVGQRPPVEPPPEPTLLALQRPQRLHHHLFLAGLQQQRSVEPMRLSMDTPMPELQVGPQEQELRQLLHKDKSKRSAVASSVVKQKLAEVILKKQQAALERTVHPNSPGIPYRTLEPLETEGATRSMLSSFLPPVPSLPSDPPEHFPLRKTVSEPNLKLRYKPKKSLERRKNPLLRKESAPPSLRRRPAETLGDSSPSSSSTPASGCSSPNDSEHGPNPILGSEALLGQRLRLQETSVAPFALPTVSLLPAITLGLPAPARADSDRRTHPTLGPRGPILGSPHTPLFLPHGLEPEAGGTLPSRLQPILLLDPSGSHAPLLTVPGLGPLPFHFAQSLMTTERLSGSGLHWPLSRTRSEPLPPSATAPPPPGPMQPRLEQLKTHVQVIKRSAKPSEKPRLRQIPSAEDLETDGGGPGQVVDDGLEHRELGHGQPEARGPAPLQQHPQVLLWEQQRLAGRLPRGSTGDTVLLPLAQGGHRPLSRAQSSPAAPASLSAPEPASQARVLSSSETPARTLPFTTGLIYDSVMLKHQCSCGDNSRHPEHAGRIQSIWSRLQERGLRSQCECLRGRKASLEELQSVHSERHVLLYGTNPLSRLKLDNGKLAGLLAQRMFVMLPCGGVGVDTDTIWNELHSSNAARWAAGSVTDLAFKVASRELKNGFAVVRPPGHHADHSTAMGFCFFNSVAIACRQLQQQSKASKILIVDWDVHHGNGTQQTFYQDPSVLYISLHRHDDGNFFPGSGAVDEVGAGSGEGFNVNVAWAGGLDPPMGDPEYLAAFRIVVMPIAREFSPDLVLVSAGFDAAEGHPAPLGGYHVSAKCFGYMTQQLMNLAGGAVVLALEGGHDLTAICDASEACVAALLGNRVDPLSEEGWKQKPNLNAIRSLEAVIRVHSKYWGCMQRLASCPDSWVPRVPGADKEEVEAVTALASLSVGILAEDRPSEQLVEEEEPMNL

Histone deacetylase 3 = Histone deacetylase 3 (Homo sapiens, UniProt O15379); assay: Inhibition of human recombinant HDAC3 pre-incubated with compounds for 10 mins measured followed by 60 mins of substrate addition
Sequence of Histone deacetylase 3 (O15379 whole entry): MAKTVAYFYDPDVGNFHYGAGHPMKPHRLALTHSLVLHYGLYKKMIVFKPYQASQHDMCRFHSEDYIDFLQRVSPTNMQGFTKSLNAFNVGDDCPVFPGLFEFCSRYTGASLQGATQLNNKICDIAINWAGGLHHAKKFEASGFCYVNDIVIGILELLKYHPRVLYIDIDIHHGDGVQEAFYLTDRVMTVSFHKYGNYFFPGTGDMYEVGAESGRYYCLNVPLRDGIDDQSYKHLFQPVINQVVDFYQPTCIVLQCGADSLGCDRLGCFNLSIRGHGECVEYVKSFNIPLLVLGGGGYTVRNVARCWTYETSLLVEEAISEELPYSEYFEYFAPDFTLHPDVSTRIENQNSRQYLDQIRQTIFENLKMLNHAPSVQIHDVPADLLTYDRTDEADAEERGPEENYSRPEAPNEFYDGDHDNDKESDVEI

Histone deacetylase 8 = molecular target: T3, Histone deacetylase 8 (Homo sapiens, UniProt Q9BY41); assay: Inhibition of human recombinant HDAC8 pre-incubated with compounds for 10 mins measured followed by 60 mins of substrate addition
T3 sequence (Q9BY41 whole entry): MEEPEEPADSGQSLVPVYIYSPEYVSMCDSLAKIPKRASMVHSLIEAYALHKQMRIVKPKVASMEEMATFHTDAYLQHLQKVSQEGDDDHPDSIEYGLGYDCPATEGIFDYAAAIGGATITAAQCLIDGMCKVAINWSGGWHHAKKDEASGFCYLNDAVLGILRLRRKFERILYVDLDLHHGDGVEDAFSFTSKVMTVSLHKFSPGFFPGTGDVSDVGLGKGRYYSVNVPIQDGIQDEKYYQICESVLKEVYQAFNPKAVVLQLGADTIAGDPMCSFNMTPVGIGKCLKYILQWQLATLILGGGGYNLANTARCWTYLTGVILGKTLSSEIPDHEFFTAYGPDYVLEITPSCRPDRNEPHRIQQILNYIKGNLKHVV

HepG2 = assay: Antiproliferative activity against human HepG2 cells measured after 48 hrs incubation by MTT assay relative to control; type: functional, cell-based; conditions: HepG2, 48 h
B16-F10 (Mus musculus) = assay: Antiproliferative activity against mouse B16-F10 cells measured after 48 hrs incubation by MTT assay relative to control; conditions: B16-F10, 48 h
[2] = Antiproliferative activity against […] cells measured after 48 hrs incubation by MTT assay relative to control; type: functional, cell-based; conditions: Mus musculus, Lung cancer cell line
MC-38 [3] = assay: Antiproliferative activity against mouse MC38 cells measured after 48 hrs incubation by MTT assay relative to control; type: functional, cell-based; conditions: MC-38, 48 h
HeLa = assay: Antiproliferative activity against human HeLa cells measured after 48 hrs incubation by MTT assay relative to control; type: functional, cell-based
HCT-116 = assay: Antiproliferative activity against human HCT-116 cells measured after 48 hrs incubation by MTT assay relative to control; type: functional, cell-based; conditions: HCT-116, 48 h
MCF7 = assay: Antiproliferative activity against human MCF7 cells measured after 48 hrs incubation by MTT assay relative to control; type: functional, cell-based; conditions: MCF7, 48 h
MC-38 [4] = assay: Effect on acetylated alpha-tubulin in mouse MC38 cells at 0.1 to 2 uM measured after 24 hrs incubation by Western blot analysis; type: functional, cell-based; conditions: dose 0.1-2 µM
MC-38 [5] = assay: Increase in acetylated H3 in mouse MC38 cells at 0.1 to 2 uM measured after 24 hrs incubation by Western blot analysis; type: functional, cell-based; conditions: dose 0.1-2 µM
MC-38 [6] = assay: Effect on acetylated SMC3 in mouse MC38 cells at 0.1 to 2 uM measured after 24 hrs incubation by Western blot analysis; type: functional, cell-based; conditions: dose 0.1-2 µM

SMILES | IC50 [1] | IC50 (Histone deacetylase 1) | IC50 (Histone deacetylase 7) | IC50 (Histone deacetylase 3) | IC50 (Histone deacetylase 8) | IC50 (HepG2) | IC50 (B16-F10 (Mus musculus)) | IC50 (HeLa) | IC50 (HCT-116) | IC50 (MCF7) | Activity (B16-F10) | IC50 [2] | IC50 (MC-38 [3]) | Activity (MC-38 [4]) | Activity (MC-38 [5]) | Activity (MC-38 [6])
CCCNNC(=O)c1ccc(CNC(=O)c2cnc(-c3ccc(F)cc3)[nH]2)cc1 | 9020 nM | 960 nM | > 10000 nM | 130 nM | > 10000 nM | – | – | – | – | – | 37.64% | – | – | – | – | –
Nc1ccccc1NC(=O)c1ccc(CNC(=O)c2cnc(-c3ccc4c(c3)OCCO4)[nH]2)cc1 | > 10000 nM | 3660 nM | > 10000 nM | 330 nM | > 10000 nM | – | – | – | – | – | 13.1% | – | – | – | – | –
CCCNNC(=O)c1ccc(CNC(=O)c2cnc(-c3ccnc4ccccc34)[nH]2)cc1 | > 10000 nM | 3240 nM | > 10000 nM | 170 nM | > 10000 nM | – | – | – | – | – | 13.07% | – | – | – | – | –
CCCNNC(=O)c1ccc(CNC(=O)c2cnc(-c3ccc4c(c3)OCCO4)[nH]2)cc1 | > 10000 nM | 3910 nM | > 10000 nM | 290 nM | > 10000 nM | – | – | – | – | – | 23.11% | – | – | – | – | –
Nc1ccccc1NC(=O)c1ccc(CNC(=O)c2cnc(-c3ccc(F)cc3)[nH]2)cc1 | – | – | – | – | – | – | – | – | – | – | 9.98% | – | – | – | – | –
CCCNNC(=O)c1ccc(CNC(=O)c2cnc(-c3ccc4[nH]ccc4c3)[nH]2)cc1 | – | – | – | – | – | – | – | – | – | – | 2.77% | – | – | – | – | –
COc1ccc(-c2ncc(C(=O)NCc3ccc(C(=O)Nc4ccccc4N)cc3)[nH]2)cc1 | > 10000 nM | 4450 nM | > 10000 nM | 100 nM | > 10000 nM | – | – | – | – | – | 28.07% | – | – | – | – | –
Nc1ccccc1NC(=O)c1ccc(CNC(=O)c2cnc(-c3ccccc3)[nH]2)cc1 | > 10000 nM | 1410 nM | > 10000 nM | 120 nM | > 10000 nM | – | – | – | – | – | 15.84% | – | – | – | – | –
CCCNNC(=O)c1ccc(CNC(=O)c2ncc(CNc3ccccc3)s2)cc1 | – | – | – | – | – | 670 nM | 1770 nM | 3770 nM | 310 nM | 1760 nM | 57.29% | 250 nM | 2350 nM | – | – | –
Nc1ccccc1NC(=O)c1ccc(CNC(=O)OCc2cccnc2)cc1 [ENTINOSTAT] | – | – | – | – | – | 4080 nM | 9360 nM | > 10000 nM | – | 8990 nM | 16.1% | 2870 nM | > 10000 nM | inactive | Active | inactive

More lines, main results first:

IC50 [1] | IC50 (Histone deacetylase 1) | IC50 (Histone deacetylase 7) | IC50 (Histone deacetylase 3) | IC50 (Histone deacetylase 8) | IC50 (HepG2) | IC50 (B16-F10 (Mus musculus)) | IC50 (HeLa) | IC50 (HCT-116) | IC50 (MCF7) | SMILES | Activity (B16-F10) | IC50 [2] | IC50 (MC-38 [3]) | Activity (MC-38 [4]) | Activity (MC-38 [5]) | Activity (MC-38 [6])
> 10000 nM | 2360 nM | > 10000 nM | 88 nM | > 10000 nM | – | – | – | – | – | CCCNNC(=O)c1ccc(CNC(=O)c2cnc(-c3ccc(OC)cc3)[nH]2)cc1 | 33.01% | – | – | – | – | –
> 10000 nM | 4180 nM | > 10000 nM | 91 nM | > 10000 nM | – | – | – | – | – | Nc1ccccc1NC(=O)c1ccc(CNC(=O)c2cnc(-c3ccc4occc4c3)[nH]2)cc1 | 31.86% | – | – | – | – | –
> 10000 nM | 4620 nM | > 10000 nM | 100 nM | > 10000 nM | – | – | – | – | – | Nc1ccccc1NC(=O)c1ccc(CNC(=O)c2cnc(-c3ccc4ccccc4c3)[nH]2)cc1 | 28.15% | – | – | – | – | –
– | – | – | 31 nM | – | – | – | – | – | – | COc1ccc(-c2ncc(C(=O)NCCCCCCC(=O)NO)s2)c(OC)c1 | – | – | – | – | – | –
8910 nM | 2060 nM | > 10000 nM | 66 nM | > 10000 nM | 500 nM | 3060 nM | 1970 nM | 160 nM | 2290 nM | CCCNNC(=O)c1ccc(CNC(=O)c2cnc(-c3ccccc3)[nH]2)cc1 | 49.33% | 2190 nM | 5300 nM | – | – | –
9430 nM | 2430 nM | > 10000 nM | 96 nM | > 10000 nM | – | – | – | – | – | Nc1ccccc1NC(=O)c1ccc(CNC(=O)c2cnc(-c3cccc4ccccc34)[nH]2)cc1 | 39.28% | – | – | – | – | –
> 10000 nM | 1740 nM | > 10000 nM | 74 nM | > 10000 nM | 690 nM | 1970 nM | 1670 nM | 220 nM | 2110 nM | CCCNNC(=O)c1ccc(CNC(=O)c2cnc(-c3ccc4ccccc4c3)[nH]2)cc1 | 52.99% | 1370 nM | 3470 nM | – | – | –
